Patent US11896009B2, “Bioactive composition for improving stress tolerance of plants” (FYTEKO, priority 2015, dated 2024)

Experiment: Antioxidant test, DPPH radical scavenging (Example 9)
Format: biochemical
Protocol: The antioxidant activity of oligoferulates prepared as described in example 1, ferulic acid (W518301, Sigma-Aldrich), gallic acid (27645, Sigma-Aldrich) and ascorbic acid (A0278, Sigma-Aldrich) was determined using a method based on the scavenging of the stable radical 2,2-diphenyl-1-picrylhydrazyl (DPPH) (Brand Williams et al, Food Sci Technol-Lebens Wissens Technol. 1995; 28:25-30) and the results expressed as IC50 (concentration of antioxidant which reduces the free radical DPPH⋅ about 50%). This method is frequently used to predict the antioxidant activities of different molecules.

Row | antioxidant activity IC50 (concentration which reduces the free radical DPPH about 50%) | SMILES
1 | 5 µg/mL | O=C1O[C@H]([C@@H](O)CO)C(O)=C1O [ascorbic acid]
2 | 25 µg/mL | COc1cc(/C=C/C(=O)O)ccc1O [ferulic acid]
3 | 2 µg/mL | O=C(O)c1cc(O)c(O)c(O)c1 [gallic acid]
